Literature values in patent publication US20080214562A1, “Chemical Compounds” (priority 2005, published 2008).

System: T-tropic HIV
Settings: patients that are dual tropic or where only the T-tropic form of the virus is present

SMILES: c1cc(CN2CCCNCCNCCCNCC2)ccc1CN1CCCNCCNCCCNCC1 [AMD-3100]
- T-tropic HIV viral load: significantly reduce
